Here are results for 19 compounds from patent publication US20250144067A1, “PERSONALIZED STARVATION THERAPY FOR CANCER” (Faeth Therapeutics, Inc., priority 2021, published 2025).

Where a name gives a salt, the structure may show the parent alone. Read-outs that look alike come from different tables or passages of the source.

Experiment [1] has as its system NCI-H292 lung cancer cells. As to the kind of experiment: FDA drug screening, complete media vs cholesterol-free media with simvastatin (TABLE 2). In kind it is cell-based, human.
Experiment [2] relates to NCI-H292 lung cancer cells. The experiment in a line: FDA drug screening, complete media vs cholesterol-free media without statin (TABLE 1). In kind it is cell-based, human.
The mark [3] stands for this setting: NCI-H292 cells, FDA drug library screen, cholesterol-free media with simvastatin 0.04 μM.
Where [4] appears, read: NCI-H292 cells, FDA drug library screen, complete media.
Setting [5] is: complete media minus cholesterol-free media + simvastatin, >0 enhanced anti-cancer activity, about 0 neutral, <0 antagonist.
[6] abbreviates: Complete minus Cholesterol-free, >0 enhanced anti-cancer activity, about 0 neutral, <0 antagonist.
The mark [7] stands for this setting: NCI-H292 cells, cholesterol-free media without statin.
The mark [8] stands for this setting: complete media vs cholesterol-free media + simvastatin (0.04 μM), >0 enhanced anti-cancer activity, about 0 neutral, <0 antagonist.
Where [9] appears, read: NCI-H292 cells, drug in cholesterol-free media with simvastatin 0.04 μM.
Setting [10] is: NCI-H292 cells, drug in complete media.
Where [11] appears, read: NCI-H292 cells, cholesterol-free media without statin, FDA drug library screen.
The mark [12] stands for this setting: NCI-H292 cells, complete media, FDA drug library screen.
[13] abbreviates: complete vs cholesterol-free media, >0 enhanced anti-cancer activity, about 0 neutral, <0 antagonist.
The mark [14] stands for this setting: NCI-H292 cells, cholesterol-free media with simvastatin 0.04 μM, cell growth value in FDA drug screen.
The mark [15] stands for this setting: NCI-H292 cells, complete media, cell growth value in FDA drug screen.
The mark [16] stands for this setting: complete vs cholesterol-free media, greater than 0 enhanced anti-cancer activity, about 0 neutral, below 0 antagonists.
[17] abbreviates: Complete minus Cholesterol-free, greater than 0 enhanced anti-cancer activity, about 0 neutral, below 0 antagonists.
The mark [18] stands for this setting: NCI-H292 cells in cholesterol-free media without statin.
Where [19] appears, read: NCI-H292 cells in complete media.
The mark [20] stands for this setting: NCI-H292 cells, FDA library drug in cholesterol-free media with simvastatin 0.04 μM.
Where [21] appears, read: NCI-H292 cells, FDA library drug in complete media.

As for `COC(=O)/C=C/C(=O)OCCN1C(=O)CCC1=O` [Diroximel fumarate], the “Cholesterol-free media + simvastatin (0.04 μM)” value in experiment [1] (setting [3]) was 0.9299. Also, the “Complete Media” value in experiment [1] (setting [4]) was determined as 1.101. In addition, the Difference in experiment [1] (setting [5]) was 0.17; in experiment [2] (setting [6]), −0.30. Further, the Cholesterol-free in experiment [2] (setting [7]) was determined as 1.046. In experiment [2] (NCI-H292 cells, complete media), this compound returned a Complete of 0.7458.

Regarding Iproniazid (phosphate), the Difference in experiment [1] (setting [8]) is −0.09; in experiment [2] (setting [6]), −0.26. Moreover, the Complete in experiment [2] (NCI-H292 cells, complete media) stood at 0.8468.

Consider `NC[C@H]1O[C@H](O[C@H]2[C@H](O)[C@@H](O[C@H]3O[C@H](CO)[C@@H](O)[C@H](N)[C@H]3O)[C@H](N)C[C@@H]2N)[C@H](N)[C@@H](O)[C@@H]1O` [Bekanamycin], for which the “Cholesterol-free media + simvastatin (0.04 μM)” value in experiment [1] (setting [9]) is 1.456. Further, in experiment [1] (setting [10]), the “Complete Media” value worked out at 1.293. For the same compound, the Difference in experiment [1] (setting [8]) is −0.16; in experiment [2] (setting [13]), 0.57. For the same compound, the Cholesterol-free in experiment [2] (setting [11]) came to 0.873. The Complete in experiment [2] (setting [12]) turned out to be 1.446.

Diethylcarbamazine (citrate): the “Cholesterol-free media + simvastatin (0.04 μM)” value in experiment [1] (setting [14]) was 0.703. For the same compound, in experiment [1] (setting [15]), the “Complete Media” value was found to be 0.7247. Besides, the Difference in experiment [1] (setting [5]) is given as 0.02; in experiment [2] (setting [16]), −0.38. The Cholesterol-free in experiment [2] (setting [7]) is on record as 1.324. The same compound registered a Complete in experiment [2] (NCI-H292 cells, complete media) of 0.9451.

For `CN(CCOc1ccc(NS(C)(=O)=O)cc1)CCc1ccc(NS(C)(=O)=O)cc1` [Dofetilide], the “Cholesterol-free media + simvastatin (0.04 μM)” value in experiment [1] (setting [3]) is 0.6812. The “Complete Media” value in experiment [1] (setting [4]) was 0.8394. Also, the Difference in experiment [1] (setting [5]) was 0.16; in experiment [2] (setting [17]), −0.48. In experiment [2] (setting [18]), this compound gave a Cholesterol-free of 1.275. In experiment [2] (setting [19]), this compound returned a Complete of 0.7972.

With `C[C@H](CS)C(=O)N1CCC[C@H]1C(=O)O` [Captopril], the “Cholesterol-free media + simvastatin (0.04 μM)” value in experiment [1] (NCI-H292 cells, cholesterol-free media with simvastatin 0.04 μM, FDA drug library screen (TABLE 2)) amounted to 0.8354. Moreover, the “Complete Media” value in experiment [1] (NCI-H292 cells, complete media, FDA drug library screen (TABLE 2)) came out at 0.832. For the same compound, the Difference in experiment [1] (complete media minus cholesterol-free media + simvastatin (0.04 μM), >0 enhanced anti-cancer activity, about 0 neutral, <0 antagonist) is 0.00; in experiment [2] (setting [6]), −0.19. In addition, in experiment [2] (setting [7]), the Cholesterol-free was 0.897. In experiment [2] (NCI-H292 cells, complete media), the Complete worked out at 0.704.

Consider Icatibant (acetate), for which the “Cholesterol-free media + simvastatin (0.04 μM)” value in experiment [1] (setting [9]) was 1.025. Moreover, the “Complete Media” value in experiment [1] (setting [10]) is on record as 0.7948. In addition, the Difference in experiment [1] (complete media vs cholesterol-free media + simvastatin (0.04 μM), […]) is on record as −0.23; in experiment [2] (complete vs cholesterol-free media, […]) it was −0.35. Also, the Cholesterol-free in experiment [2] (setting [7]) worked out at 1.121. Besides, the Complete in experiment [2] (NCI-H292 cells, complete media) is given as 0.7693.

With `CCCCCCCC(=O)N[C@H](CN1CCCC1)[C@H](O)c1ccc2c(c1)OCCO2` [Eliglustat], the “Cholesterol-free media + simvastatin (0.04 μM)” value in experiment [1] (setting [20]) was 1.086. For the same compound, the “Complete Media” value in experiment [1] (setting [21]) is 0.6384. Besides, the Difference is recorded as −0.45 in experiment [1] (setting [8]) and −0.30 in experiment [2] (setting [6]). In experiment [2] (setting [7]), the Cholesterol-free is 1.155. Further, the Complete in experiment [2] (NCI-H292 cells, complete media) turned out to be 0.8552.

Consider `C[C@@H](O)[C@H]1C(=O)N2C(C(=O)O)=C(S[C@@H]3CN[C@H](CNS(N)(=O)=O)C3)[C@H](C)[C@H]12` [Doripenem (monohydrate)], for which the “Cholesterol-free media + simvastatin (0.04 μM)” value in experiment [1] (setting [3]) turned out to be 0.9911. Moreover, the “Complete Media” value in experiment [1] (setting [4]) was determined as 0.8363. Moreover, the Difference is given as −0.15 in experiment [1] (setting [8]) and −0.25 in experiment [2] (setting [6]). The same compound registered a Cholesterol-free in experiment [2] (setting [7]) of 1.011. Also, the Complete in experiment [2] (NCI-H292 cells, complete media) came out at 0.7618.

For `CCc1ccc(Cc2ccc3c(c2)[C@]2(OC3)O[C@H](CO)[C@@H](O)[C@H](O)[C@H]2O)cc1` [Tofogliflozin (hydrate)], in experiment [1] (setting [14]), the “Cholesterol-free media + simvastatin (0.04 μM)” value was determined as 0.9605. Further, in experiment [1] (setting [15]), the “Complete Media” value is listed as 1.04. The Difference is given as 0.08 in experiment [1] (setting [5]) and −0.38 in experiment [2] (setting [16]). For the same compound, the Cholesterol-free in experiment [2] (setting [7]) is on record as 1.411. This compound also yielded a Complete in experiment [2] (NCI-H292 cells, complete media) of 1.03.

Consider `CC(=O)Oc1c(C)cc(OCC(O)CNC(C)C)c(C)c1C` (stereo not drawn) [Metipranolol hydrochloride], for which, in experiment [1] (setting [14]), the “Cholesterol-free media + simvastatin (0.04 μM)” value amounted to 0.8039. Further, in experiment [1] (setting [15]), the “Complete Media” value is recorded as 0.8617. Further, the Difference was found to be 0.06 in experiment [1] (setting [5]) and 0.05 in experiment [2] (setting [6]). The Cholesterol-free in experiment [2] (setting [11]) is recorded as 0.8441. In experiment [2] (setting [12]), this compound yielded a Complete of 0.893.

For the compound `C[C@@H]1CN(c2c(F)c(N)c3c(=O)c(C(=O)O)cn(C4CC4)c3c2F)C[C@H](C)N1` [Sparfloxacin], in experiment [1] (setting [3]), the “Cholesterol-free media + simvastatin (0.04 μM)” value was 0.949. Besides, in experiment [1] (setting [4]), the “Complete Media” value came to 1.118. Further, the Difference is 0.17 in experiment [1] (setting [5]) and −0.52 in experiment [2] (setting [17]). In addition, the Cholesterol-free in experiment [2] (setting [18]) amounted to 1.45. In experiment [2] (setting [19]), this compound showed a Complete of 0.9275.

Riboflavin (phosphate sodium): in experiment [1] (setting [3]), the “Cholesterol-free media + simvastatin (0.04 μM)” value is 1.127. In addition, the “Complete Media” value in experiment [1] (setting [4]) stood at 0.9972. Moreover, the Difference in experiment [1] (setting [8]) is reported as −0.13; in experiment [2] (setting [16]), −0.32. This compound had a Cholesterol-free in experiment [2] (setting [7]) of 1.308. This compound also registered a Complete in experiment [2] (NCI-H292 cells, complete media) of 0.9828.

Take `CCOC(=O)COc1ccc2c(=O)cc(-c3ccccc3)oc2c1` [Efloxate]: the “Cholesterol-free media + simvastatin (0.04 μM)” value in experiment [1] (setting [3]) turned out to be 1.124. Also, the “Complete Media” value in experiment [1] (setting [4]) worked out at 0.9754. Moreover, the Difference in experiment [1] (setting [8]) is recorded as −0.15; in experiment [2] (setting [16]), −0.42. Moreover, in experiment [2] (setting [7]), the Cholesterol-free amounted to 1.349. In experiment [2] (NCI-H292 cells, complete media), this compound showed a Complete of 0.929.

Take `Nc1cc(F)ccc1NC(=O)c1ccc(CNC(=O)/C=C/c2cccnc2)cc1` [Tucidinostat]: in experiment [1] (setting [14]), the “Cholesterol-free media + simvastatin (0.04 μM)” value worked out at 0.5739. In experiment [1] (setting [15]), the “Complete Media” value is recorded as 0.6176. Moreover, the Difference is reported as 0.04 in experiment [1] (setting [5]) and −0.51 in experiment [2] (setting [17]). Besides, the Cholesterol-free in experiment [2] (setting [18]) turned out to be 1.245. Besides, the Complete in experiment [2] (setting [19]) came out at 0.7308.

`CS(=O)(=O)c1cc(F)cc2c3c(n(Cc4ccc(Cl)cc4)c12)[C@@H](CC(=O)O)CC3` [Laropiprant]: in experiment [1], the “Cholesterol-free media + simvastatin (0.04 μM)” value is given as 0.8957, the “Complete Media” value turned out to be 1.455 and the Difference was 0.56. In addition, in experiment [2], the Cholesterol-free is 1.338, the Complete worked out at 1.092 and the Difference was −0.25.

`COc1cc2c(cc1OC)C1CC(=O)C(CC(C)C)CN1CC2` (stereo not drawn) [Tetrabenazine]: the “Cholesterol-free media + simvastatin (0.04 μM)” value in experiment [1] (setting [9]) was 1.249. Further, the “Complete Media” value in experiment [1] (setting [10]) is given as 1.01. The Difference in experiment [1] (setting [8]) is on record as −0.24; in experiment [2] (setting [16]) it was −0.45. Further, in experiment [2] (setting [7]), the Cholesterol-free is listed as 1.615. For the same compound, the Complete in experiment [2] (NCI-H292 cells, complete media) worked out at 1.162.

For `CNC(=O)c1ccc(N2C(=S)N(c3ccc(C#N)c(C(F)(F)F)c3)C(=O)C2(C)C)cc1F` [Enzalutamide], in experiment [1] (setting [20]), the “Cholesterol-free media + simvastatin (0.04 μM)” value worked out at 0.7893. Further, in experiment [1] (setting [21]), the “Complete Media” value was determined as 0.3116. The Difference in experiment [1] (setting [8]) was −0.48; in experiment [2] (setting [13]) it was 0.44. This compound also showed a Cholesterol-free in experiment [2] (setting [11]) of 0.885. The compound also yielded a Complete in experiment [2] (setting [12]) of 1.326.

As for `CC(O)c1cc(C(=O)N[C@@H](C)Cn2ccc(-c3ccc(C#N)c(Cl)c3)n2)[nH]n1` (stereo partly drawn) [Darolutamide], the “Cholesterol-free media + simvastatin (0.04 μM)” value in experiment [1] (setting [14]) worked out at 0.9075. The “Complete Media” value in experiment [1] (setting [15]) is listed as 0.9966. Further, the Difference in experiment [1] (setting [5]) is given as 0.09; in experiment [2] (setting [6]), −0.20. Also, the Cholesterol-free in experiment [2] (setting [7]) amounted to 1.263. The Complete in experiment [2] (NCI-H292 cells, complete media) came out at 1.061.
